From patent US11058703B2, “Application of triacetyl-3-hydroxyphenyladenosine in preparation of pharmaceutical drug for preventing or treating non-alcoholic fatty liver disease” (priority 2015, dated 2021)

Legend:
[1] = tested on: golden hamster with non-alcoholic fatty liver disease induced by high-fat diet; assay: Serum lipid indexes of golden hamster with non-alcoholic fatty liver disease induced by high-fat diet; type: in vivo, Syrian golden hamster; details: n = 10; for LDL-C: calculated LDL=TC-HDL-0.2TG
Description: (§1) After 5 days of adaptive feeding, animals were randomly divided into a normal control group (n=15), a high-fat diet group (n=15), an IMMH007 low-dose group (25 mg/kg, n=15), an IMMH007 medium-dose group (50 mg/kg, n=15), and an IMMH007 high-dose group (100 mg/kg, n=15), and given intragastric administration twice daily.
(§2) The animals were fasted for 12 hours, and 0.5 ml blood was collected from the angular vein and allowed to stand for 60 min, and centrifuged at 6000 g for 10 min, and the supernatant was aspirated as much as possible, and then centrifuged at 6000 g for 10 min. The absorbance values were measured according to the instructions of the total cholesterol (TC), triglycerides (TG), aspartate aminotransferase (AST), and alanine aminotransferase (ALT) kits, and the concentration of each index was calculated. 50 ul serum was mixed with 50 ul PEG6000 in a ratio of 1:1, vortexed uniformly, allowed to stand for 10 min, and centrifuged at 1900 g for 20 min at room temperature, and the supernatant was carefully pipetted, stored at 4° C., and measured for high density lipoprotein cholesterol (HDL-C) according to the instructions of the total cholesterol (TC) kit. The plasma low density lipoprotein (LDL) level was calculated by subtracting HDL-C and 0.2-fold TG levels from plasma total cholesterol TC, ie, LDL=TC-HLD-0.2TG.

[2] = tested on: golden hamster with non-alcoholic fatty liver disease induced by high-fat diet; assay: Liver function (serum ALT, AST) of golden hamster with non-alcoholic fatty liver disease induced by high-fat diet; details: n = 10; for GPT: serum ALT; for GOT: serum AST
Description: as §1, §2

[3] = tested on: golden hamster with non-alcoholic fatty liver disease induced by high-fat diet; details: in vivo
Description: as §1, §2

[4] = tested on: golden hamster with non-alcoholic fatty liver disease induced by high-fat diet; assay: Lipid content in liver tissue of golden hamster with non-alcoholic fatty liver disease induced by high-fat diet; type: in vivo, Syrian golden hamster; details: n = 10
Description: 100 mg liver tissue was accurately weighed, and added with a triglyceride detection lysate, the tissue was homogenized by a homogenizer in an ice bath to no significant tissue mass, placed on ice for 5 min, transferred to a 1.5 ml centrifuge tube, and centrifuged at 14000 g for 10 min at 4° C., the supernatant was transferred and a portion of the supernatant was taken for protein quantification, and detected for its lipid content according to the instructions of the TC and TG detection kits.

[5] = tested on: golden hamster with non-alcoholic fatty liver disease induced by high-fat diet; assay: Body weight and liver coefficient of golden hamster with non-alcoholic fatty liver disease induced by high-fat diet; type: in vivo, Syrian golden hamster; details: n = 10, mean ± standard error
Description: The animals were fasted overnight before the end of the experiment, anesthetized by intraperitoneal injection of 3% pentobarbital sodium, the abdominal cavity was exposed, and the liver was rapidly separated after blood was taken from the aorta abdominalis. One liver lobe was preserved, and two pieces of 1×1 cm^3 pieces were cut at a fixed site, one piece was embedded in OCT, quickly frozen in liquid nitrogen, and stored in liquid nitrogen or at −80° C.; and the other piece was placed in a 4% paraformaldehyde stationary liquid and stored at 4° C.

CC(=O)OCC1OC(n2cnc3c(Nc4cccc(O)c4)ncnc32)C(OC(C)=O)C1OC(C)=O (stereo not shown) [IMM-H007, triacetyl-3-hydroxyphenyladenosine]
FFA ([1]; IMM-H007 50 mg/kg): 2324.6 ± 783.4 μEq/L | HDL-C ([1]; IMM-H007 50 mg/kg): 2.8 ± 0.4 mmol/L | TC ([1]; IMM-H007 50 mg/kg): 7.9 ± 1.0 mmol/L | TG ([1]; IMM-H007 50 mg/kg): 4.7 ± 1.9 mmol/L | FFA ([1]; IMM-H007 100 mg/kg): 1889.5 ± 386.5 μEq/L | HDL-C ([1]; IMM-H007 100 mg/kg): 2.8 ± 0.2 mmol/L | TC ([1]; IMM-H007 100 mg/kg): 7.0 ± 1.0 mmol/L | TG ([1]; IMM-H007 100 mg/kg): 4.3 ± 1.4 mmol/L | FFA ([1]; IMM-H007 200 mg/kg): 1497.6 ± 326.2 μEq/L | HDL-C ([1]; IMM-H007 200 mg/kg): 2.6 ± 0.5 mmol/L | TC ([1]; IMM-H007 200 mg/kg): 6.7 ± 1.0 mmol/L | TG ([1]; IMM-H007 200 mg/kg): 2.7 ± 0.8 mmol/L | LDL-C ([1]; IMM-H007 50 mg/kg): 4.1 ± 1.2 mmol/L | LDL-C ([1]; IMM-H007 100 mg/kg): 4.0 ± 0.7 mmol/L | LDL-C ([1]; IMM-H007 200 mg/kg): 3.3 ± 0.5 mmol/L | GPT ([2]; IMM-H007 50 mg/kg): 21.1 ± 5.2 U/L | GPT ([2]; IMM-H007 100 mg/kg): 20.9 ± 8.0 U/L | GPT ([2]; IMM-H007 200 mg/kg): 12.4 ± 3.1 U/L | GOT ([2]; IMM-H007 50 mg/kg): 9.4 ± 1.7 U/L | GOT ([2]; IMM-H007 100 mg/kg): 8.4 ± 2.3 U/L | GOT ([2]; IMM-H007 200 mg/kg): 7.2 ± 2.1 U/L | Effect on the liver as concluded from serum ALT and AST [3]: good hepatic protective effect | TC ([4]; IMM-H007 50 mg/kg): 2.8 ± 0.8 µmol/g protein | TG ([4]; IMM-H007 50 mg/kg): 3.6 ± 0.1 µmol/g protein | TC ([4]; IMM-H007 100 mg/kg): 2.4 ± 0.4 µmol/g protein | TG ([4]; IMM-H007 100 mg/kg): 3.3 ± 0.1 µmol/g protein | TC ([4]; IMM-H007 200 mg/kg): 1.8 ± 0.8 µmol/g protein | TG ([4]; IMM-H007 200 mg/kg): 2.8 ± 0.1 µmol/g protein | Body Weight ([5]; IMM-H007 50 mg/kg): 170 ± 11 | Liver Organ Coefficient ([5]; IMM-H007 50 mg/kg): 0.0313 ± 0.002 | Liver Organ Coefficient ([5]; IMM-H007 100 mg/kg): 0.0291 ± 0.003 | Body Weight ([5]; IMM-H007 100 mg/kg, in g (unit assumed)): 177 ± 9 | Body Weight ([5]; IMM-H007 200 mg/kg): 166 ± 12 | Liver Organ Coefficient ([5]; IMM-H007 200 mg/kg): 0.0298 ± 0.002
